Species on record: Rattus norvegicus
Experiment: DrugMatrix - Regimen: Daily Repeat
Format: toxicity, organism-based, Sprague-Dawley
Parameters: regimen Daily Repeat, gender Male, age 6-8 weeks
Details: in vivo, po, route oral GAVAGE, […]; for ABSOLUTE BASOPHIL / ABSOLUTE EOSINOPHIL / ABSOLUTE LYMPHOCYTE / ABSOLUTE MONOCYTE / ABSOLUTE SEGMENTED NEUTROPHIL / BASOPHIL / EOSINOPHIL / ERYTHROCYTE COUNT / HEMATOCRIT / HEMOGLOBIN / LEUKOCYTE COUNT / LYMPHOCYTE / MEAN CORPUSCULAR HEMOGLOBIN / MEAN CORPUSCULAR HEMOGLOBIN CONCENTRATION / MEAN CORPUSCULAR VOLUME / MONOCYTE / NEUTROPHIL / NUCLEATED RED BLOOD CELLS / PLATELET COUNT: tissue Blood; for ALANINE AMINOTRANSFERASE / ALBUMIN / ALKALINE PHOSPHATASE / ASPARTATE AMINOTRANSFERASE / BLOOD UREA NITROGEN / CARBON DIOXIDE / CHLORIDE / CHOLESTEROL / CREATINE PHOSPHOKINASE / CREATININE / GLUCOSE / LACTATE DEHYDROGENASE / LIPASE / PHOSPHORUS / POTASSIUM / SODIUM / TOTAL BILIRUBIN / TOTAL PROTEIN / URIC ACID: tissue Plasma
[1] = 0 mg/kg, 72 h, dose level Control, time 3 day
[2] = 0 mg/kg, 120 h, dose level Control, time 5 day
[3] = 10 mg/kg, 72 h, dose level Low, time 3 day
[4] = 10 mg/kg, 120 h, dose level Low, time 5 day

SMILES: OC(Cn1cncn1)(Cn1cncn1)c1ccc(F)cc1F [FLUCONAZOLE]
- ABSOLUTE BASOPHIL [1]: 0 CELLS/uL
- ABSOLUTE EOSINOPHIL [1]: 104.17 CELLS/uL
- ABSOLUTE LYMPHOCYTE [1]: 14547 CELLS/uL
- ABSOLUTE MONOCYTE [1]: 292 CELLS/uL
- ABSOLUTE SEGMENTED NEUTROPHIL [1]: 1640.17 CELLS/uL
- BASOPHIL [1]: 0%
- EOSINOPHIL [1]: 0.67%
- ERYTHROCYTE COUNT [1]: 5.35 x10E6/uL
- HEMATOCRIT [1]: 33.67%
- HEMOGLOBIN [1]: 13.38 G/DL
- LEUKOCYTE COUNT [1]: 16.58 x10E3/uL
- LYMPHOCYTE [1]: 87.5%
- MEAN CORPUSCULAR HEMOGLOBIN [1]: 25.05 pg
- MEAN CORPUSCULAR HEMOGLOBIN CONCENTRATION [1]: 39.78 G/DL
- MEAN CORPUSCULAR VOLUME [1]: 62.97 fL
- MONOCYTE [1]: 1.83%
- NEUTROPHIL [1]: 10%
- NUCLEATED RED BLOOD CELLS [1]: 0 /100WBC
- PLATELET COUNT [1]: 1274.5 x10E3/uL
- ALANINE AMINOTRANSFERASE [1]: 76.83 u/L
- ALBUMIN [1]: 3.97 G/DL
- ALKALINE PHOSPHATASE [1]: 347 u/L
- ASPARTATE AMINOTRANSFERASE [1]: 97.17 u/L
- BLOOD UREA NITROGEN [1]: 14.33 mg/dL
- CARBON DIOXIDE [1]: 25.5 mmol/L
- CHLORIDE [1]: 100.33 MEQ/L
- CHOLESTEROL [1]: 68.67 mg/dL
- CREATINE PHOSPHOKINASE [1]: 659.17 u/L
- CREATININE [1]: 0.32 mg/dL
- GLUCOSE [1]: 160.67 mg/dL
- LACTATE DEHYDROGENASE [1]: 271.5 u/L
- LIPASE [1]: 11.67 u/L
- PHOSPHORUS [1]: 10.65 mg/dL
- POTASSIUM [1]: 5.95 MEQ/L
- SODIUM [1]: 139.65 MEQ/L
- TOTAL BILIRUBIN [1]: 0.2 mg/dL
- TOTAL PROTEIN [1]: 5.72 G/DL
- URIC ACID [1]: 1.37 mg/dL
- ABSOLUTE BASOPHIL [2]: 0 CELLS/uL
- ABSOLUTE EOSINOPHIL [2]: 331.5 CELLS/uL
- ABSOLUTE LYMPHOCYTE [2]: 15021.67 CELLS/uL
- ABSOLUTE MONOCYTE [2]: 376.5 CELLS/uL
- ABSOLUTE SEGMENTED NEUTROPHIL [2]: 3070.33 CELLS/uL
- BASOPHIL [2]: 0%
- EOSINOPHIL [2]: 1.83%
- ERYTHROCYTE COUNT [2]: 5.24 x10E6/uL
- HEMATOCRIT [2]: 33.22%
- HEMOGLOBIN [2]: 13.2 G/DL
- LEUKOCYTE COUNT [2]: 18.8 x10E3/uL
- LYMPHOCYTE [2]: 79.67%
- MEAN CORPUSCULAR HEMOGLOBIN [2]: 25.17 pg
- MEAN CORPUSCULAR HEMOGLOBIN CONCENTRATION [2]: 39.73 G/DL
- MEAN CORPUSCULAR VOLUME [2]: 63.38 fL
- MONOCYTE [2]: 2%
- NEUTROPHIL [2]: 16.5%
- NUCLEATED RED BLOOD CELLS [2]: 0 /100WBC
- PLATELET COUNT [2]: 1142.67 x10E3/uL
- ALANINE AMINOTRANSFERASE [2]: 52.5 u/L
- ALBUMIN [2]: 3.9 G/DL
- ALKALINE PHOSPHATASE [2]: 284.5 u/L
- ASPARTATE AMINOTRANSFERASE [2]: 81.33 u/L
- BLOOD UREA NITROGEN [2]: 16 mg/dL
- CARBON DIOXIDE [2]: 25.33 mmol/L
- CHLORIDE [2]: 99.5 MEQ/L
- CHOLESTEROL [2]: 74.83 mg/dL
- CREATINE PHOSPHOKINASE [2]: 448.33 u/L
- CREATININE [2]: 0.37 mg/dL
- GLUCOSE [2]: 164.17 mg/dL
- LACTATE DEHYDROGENASE [2]: 290.67 u/L
- LIPASE [2]: 6.83 u/L
- PHOSPHORUS [2]: 11.5 mg/dL
- POTASSIUM [2]: 6.28 MEQ/L
- SODIUM [2]: 139.5 MEQ/L
- TOTAL BILIRUBIN [2]: 0.13 mg/dL
- TOTAL PROTEIN [2]: 5.55 G/DL
- URIC ACID [2]: 1.12 mg/dL
- ABSOLUTE BASOPHIL [3]: 0 CELLS/uL
- ABSOLUTE EOSINOPHIL [3]: 105 CELLS/uL
- ABSOLUTE LYMPHOCYTE [3]: 3531.33 CELLS/uL
- ABSOLUTE MONOCYTE [3]: 187.33 CELLS/uL
- ABSOLUTE SEGMENTED NEUTROPHIL [3]: 2209.67 CELLS/uL
- BASOPHIL [3]: 0%
- EOSINOPHIL [3]: 1.67%
- ERYTHROCYTE COUNT [3]: 5.95 x10E6/uL
- HEMATOCRIT [3]: 39.17%
- HEMOGLOBIN [3]: 15.1 G/DL
- LEUKOCYTE COUNT [3]: 6.03 x10E3/uL
- LYMPHOCYTE [3]: 58%
- MEAN CORPUSCULAR HEMOGLOBIN [3]: 25.67 pg
- MEAN CORPUSCULAR HEMOGLOBIN CONCENTRATION [3]: 38.63 G/DL
- MEAN CORPUSCULAR VOLUME [3]: 66.27 fL
- MONOCYTE [3]: 3%
- NEUTROPHIL [3]: 37.33%
- NUCLEATED RED BLOOD CELLS [3]: 0 /100WBC
- PLATELET COUNT [3]: 1032.33 x10E3/uL
- ALANINE AMINOTRANSFERASE [3]: 59.33 u/L
- ALBUMIN [3]: 4.63 G/DL
- ALKALINE PHOSPHATASE [3]: 452.67 u/L
- ASPARTATE AMINOTRANSFERASE [3]: 96 u/L
- BLOOD UREA NITROGEN [3]: 19.33 mg/dL
- CARBON DIOXIDE [3]: 20.67 mmol/L
- CHLORIDE [3]: 101.33 MEQ/L
- CHOLESTEROL [3]: 45.67 mg/dL
- CREATINE PHOSPHOKINASE [3]: 639.33 u/L
- CREATININE [3]: 0.14 mg/dL
- GLUCOSE [3]: 174 mg/dL
- LACTATE DEHYDROGENASE [3]: 123 u/L
- LIPASE [3]: 24.67 u/L
- PHOSPHORUS [3]: 11.63 mg/dL
- POTASSIUM [3]: 6.15 MEQ/L
- SODIUM [3]: 142.57 MEQ/L
- TOTAL BILIRUBIN [3]: 0.23 mg/dL
- TOTAL PROTEIN [3]: 6.43 G/DL
- URIC ACID [3]: 1.47 mg/dL
- ABSOLUTE BASOPHIL [4]: 0 CELLS/uL
- ABSOLUTE EOSINOPHIL [4]: 0 CELLS/uL
- ABSOLUTE LYMPHOCYTE [4]: 10059.67 CELLS/uL
- ABSOLUTE MONOCYTE [4]: 397 CELLS/uL
- ABSOLUTE SEGMENTED NEUTROPHIL [4]: 1576.67 CELLS/uL
- BASOPHIL [4]: 0%
- EOSINOPHIL [4]: 0%
- ERYTHROCYTE COUNT [4]: 6.01 x10E6/uL
- HEMATOCRIT [4]: 38.4%
- HEMOGLOBIN [4]: 14.77 G/DL
- LEUKOCYTE COUNT [4]: 12.03 x10E3/uL
- LYMPHOCYTE [4]: 83.33%
- MEAN CORPUSCULAR HEMOGLOBIN [4]: 24.57 pg
- MEAN CORPUSCULAR HEMOGLOBIN CONCENTRATION [4]: 38.5 G/DL
- MEAN CORPUSCULAR VOLUME [4]: 63.9 fL
- MONOCYTE [4]: 3.33%
- NEUTROPHIL [4]: 13.33%
- NUCLEATED RED BLOOD CELLS [4]: 0.33 /100WBC
- PLATELET COUNT [4]: 1300 x10E3/uL
- ALANINE AMINOTRANSFERASE [4]: 78.67 u/L
- ALBUMIN [4]: 4.23 G/DL
- ALKALINE PHOSPHATASE [4]: 452.67 u/L
- ASPARTATE AMINOTRANSFERASE [4]: 86.67 u/L
- BLOOD UREA NITROGEN [4]: 10.67 mg/dL
- CARBON DIOXIDE [4]: 27 mmol/L
- CHLORIDE [4]: 100.67 MEQ/L
- CHOLESTEROL [4]: 56 mg/dL
- CREATINE PHOSPHOKINASE [4]: 230.33 u/L
- CREATININE [4]: 0.11 mg/dL
- GLUCOSE [4]: 169.67 mg/dL
- LACTATE DEHYDROGENASE [4]: 181.33 u/L
- LIPASE [4]: 6.67 u/L
- PHOSPHORUS [4]: 11.83 mg/dL
- POTASSIUM [4]: 5.55 MEQ/L
- SODIUM [4]: 141.67 MEQ/L
- TOTAL BILIRUBIN [4]: 0.2 mg/dL
- TOTAL PROTEIN [4]: 6.23 G/DL
- URIC ACID [4]: 1.3 mg/dL

— ChEMBL document CHEMBL3885881, “DrugMatrix”
